From PubChem BioAssay (NCI)
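The compound was tested at five concentrations on cells cultured in 96-well plates, with a 48-hour exposure period. GI50 is the concentration that inhibits growth by half. The concentration for full growth arrest is given as TGI.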

How the values were obtained:
Test in all cases: NCI tumour cell line growth inhibition, 48 h
HCT-116 colon = system: HCT-116 colon
HL-60(TB) leukemia = system: HL-60(TB) leukemia
HOP-92 NSCLC = system: HOP-92 NSCLC
IGROV1 ovarian = system: IGROV1 ovarian
MCF7 breast = system: MCF7 breast
MDA-N = system: MDA-N
NCI-H522 lung = system: NCI-H522 lung
OVCAR-4 ovarian = system: OVCAR-4 ovarian
OVCAR-8 ovarian = system: OVCAR-8 ovarian

SMILES | TGI (HCT-116 colon) [µM] | TGI (HL-60(TB) leukemia) [µM] | TGI (HOP-92 NSCLC) [µM] | TGI (IGROV1 ovarian) [µM] | TGI (MCF7 breast) [µM] | TGI (MDA-N) [µM] | TGI (NCI-H522 lung) [µM] | TGI (OVCAR-4 ovarian) [µM] | TGI (OVCAR-8 ovarian) [µM] | GI50 (HCT-116 colon) [µM] | GI50 (HL-60(TB) leukemia) [µM] | GI50 (HOP-92 NSCLC) [µM] | GI50 (IGROV1 ovarian) [µM] | GI50 (MCF7 breast) [µM] | GI50 (NCI-H522 lung) [µM] | GI50 (OVCAR-4 ovarian) [µM] | GI50 (OVCAR-8 ovarian) [µM]
O=C(/C=C/c1cccs1)c1ccccc1Cl | 25.7 | 30.4 | 97.5 | > 65 | 18.2 | 33.9 | 15 | 26.8 | > 100 | – | – | – | – | – | – | – | –
CCOC(=O)c1cn(C)c(=S)n2c1nc1ccccc12 | > 100 | – | > 100 | > 100 | > 100 | – | – | > 100 | > 100 | – | – | – | – | – | – | – | –
CCN(CC)c1ccc2cc(-c3nc4ccccc4c(=O)[nH]3)c(=N)oc2c1 | > 100 | > 100 | > 100 | > 100 | > 100 | > 100 | > 100 | > 100 | > 100 | – | – | – | – | – | – | – | –
Cc1ccc(S(=O)(=O)n2cc(C#N)c(C#N)c2)cc1 | > 100 | 71.6 | 88 | > 100 | 48.2 | 70.7 | 40 | > 100 | > 100 | – | – | – | – | – | – | – | –
CC(C)C1(O)C(=O)N(c2c(F)c(F)c(F)c(F)c2F)C(=S)N1CCSc1ccccc1 (centres undefined) | 32.1 | 29.2 | 22.2 | 31.2 | 31.7 | 31.3 | 30.5 | 29.1 | 33.8 | – | – | – | – | – | – | – | –
Cc1ccc(/C(O)=C/c2nc3ccc([N+](=O)[O-])cc3nc2/C=C(\O)c2ccc(C)cc2)cc1 | > 100 | > 100 | > 100 | > 100 | > 100 | > 100 | > 100 | > 100 | > 100 | – | – | – | – | – | – | – | –
COC(=O)c1c(-c2ccc(Cl)cc2)cc2c3ccccc3n(C)c2c1C(=O)OC | > 100 | > 100 | > 100 | > 100 | > 100 | > 100 | > 100 | > 100 | > 100 | – | – | – | – | – | – | – | –
CCC(CC(C)C)Nc1ccc(NC(CC)CC(C)C)cc1 (centres undefined) | 28.3 | 30.2 | 24.7 | 78.7 | 28.4 | – | 15.1 | 26.8 | 34.2 | 14.1 | 10.6 | 10.7 | 27.1 | 15.2 | 3.82 | 13.9 | 18.2
CO[C@]1(CN2CCN3CCCC[C@@H]3C2)/C=C/C[C@H](C)[C@@H](C)S(=O)(=O)NC(=O)c2ccc3c(c2)N(C[C@@H]2CC[C@H]21)C[C@@]1(CCCc2cc(Cl)ccc21)CO3 | 4.79 | 0.153 | 3.46 | – | – | – | 1.93 | 6.61 | – | 2.01 | 0.0297 | 1.67 | – | – | 0.37 | 1.69 | –
CCOC(=O)C1CCCCN1CCc1c[nH]c2ccccc12 (centres undefined) | > 100 | – | > 100 | > 100 | > 100 | > 100 | > 100 | > 100 | > 100 | – | – | – | – | – | – | – | –
C/C(=N\Nc1nc2ccccc2[nH]1)c1cc2ccccc2cn1 | 1.04 | – | 0.819 | 1.13 | 2.31 | 2.24 | 1.13 | 2.41 | 1.24 | – | – | – | – | – | – | – | –
O=C1CC(n2cccc2)c2c(Br)sc(Br)c21 (centres undefined) | 28.7 | 41.4 | 33.1 | 32.7 | 26.9 | 31.6 | 3.27 | 33.4 | 37.8 | – | – | – | – | – | – | – | –
CC(C)(C)OC(=O)n1cc(C2CN(O)C(=O)C23CCC(=O)N3Cc2ccccc2)c2ccccc21 (centres undefined) | > 100 | > 100 | 50.8 | 48.5 | > 100 | > 100 | 31.7 | > 100 | – | – | – | – | – | – | – | – | –
CSc1ccc(/C=C2\N=C(c3ccccc3)N(/N=C/c3cc4cc(C)ccc4nc3Cl)C2=O)cc1 | 33.2 | 47.5 | 40.1 | 35 | 43.2 | 34.5 | – | 39.3 | 42.4 | – | – | – | – | – | – | – | –
Cc1nc2ccc(Cl)cc2c2c1CCN2c1ccccc1 | 17.6 | 11.1 | 24.1 | > 100 | 36 | 10.1 | 28.1 | > 100 | 29.1 | – | – | – | – | – | – | – | –
O=[N+]([O-])c1cccnc1-n1cnc2ccccc21 | > 100 | > 100 | > 100 | > 100 | > 100 | – | – | > 100 | > 100 | – | – | – | – | – | – | – | –
COc1ccccc1CNCCCCCCCCCCCCN1C(=O)c2ccc3c4c(ccc(c24)C1=O)C(=O)N(CCCCCCCCCCCCNCc1ccccc1OC)C3=O | – | > 50 | – | > 50 | – | – | > 50 | > 50 | 1.94 | – | > 50 | – | > 50 | – | > 50 | > 50 | 0.908
O=[N+]([O-])c1ccc(C(Nc2ccccc2)c2ccc3cccnc3c2O)cc1 (centres undefined) | > 75.3 | 13.4 | 72.9 | > 100 | > 75.6 | > 100 | 28.6 | 47.7 | 52.3 | – | – | – | – | – | – | – | –
C=C(C)[C@@H]1CC[C@]2(C(=O)O)CC[C@]3(C)[C@H](CCC4[C@@]5(C)CC[C@H](C(=O)/C=C/c6ccc(O)c(O)c6)C(C)(C)[C@@H]5CC[C@]43C)[C@@H]12 (some centres undefined) | > 100 | > 100 | – | > 100 | 14.9 | 15.9 | – | > 100 | 54.5 | – | – | – | – | – | – | – | –
O=C(c1ccco1)N(C(=S)OC12CC3CC(CC(C3)C1)C2)c1ccccc1 | 48.7 | 63.6 | > 100 | – | 85.3 | 83.9 | 51.8 | > 100 | > 100 | – | – | – | – | – | – | – | –
c1ccc(-c2nnn(CCN3CCCCC3)n2)cc1 | > 100 | > 100 | > 100 | > 100 | > 100 | > 100 | > 100 | > 100 | > 100 | – | – | – | – | – | – | – | –
C=C1C(=O)O[C@H]2[C@H]3O[C@@H](C[C@@H]12)[C@](C)(O)CC[C@@H]1O[C@@]1(C)CCC[C@H]3C | 27.8 | > 100 | 36.4 | 46.2 | 50.9 | – | 34.6 | 51.8 | 47.5 | – | – | – | – | – | – | – | –
